Source: patent publication US9611277B2 (Janssen Pharmaceutica NV, priority 2013, dated 2017)
pKi: −log10 of the molar value. Read-outs that look alike come from different tables or passages of the source.

Assays:
human orexin 1 receptor = human orexin 1 receptor (Homo sapiens, UniProt O43613); experiment: Human orexin 1 receptor radioligand binding; conditions: read-out: hOX1 Ki
Method: (§1) Data are analyzed using pc-Sandy macro and graphed on Graphpad Prism 5. For analysis, each concentration point is averaged from triplicate values and the averaged values are plotted on Graphpad Prism. The IC50 was determined by applying the following equation (GraphPad Prism 5.0, SanDiego) for one site competition where X=log (concentration) and Y=specific binding. Top denotes the total [^3H]-(1-(5-(2-fluoro-phenyl)-2-methyl-thiazol-4-yl)-1-((S)-2-(5-phenyl-(1,3,4)oxadiazol-2-ylmethyl)-pyrrolidin-1-yl)-methanone) binding, bottom denotes the nonspecific [^3H]-(1-(5-(2-fluoro-phenyl)-2-methyl-thiazol-4-yl)-1-((S)-2-(5-phenyl-(1,3,4)oxadiazol-2-ylmethyl)-pyrrolidin-1-yl)-methanone) binding. Graphpad Prism calculates Ki value from IC50 and the pre-determined Kd values for [^3H]-(1-(5-(2-fluoro-phenyl)-2-methyl-thiazol-4-yl)-1-((S)-2-(5-phenyl-(1,3,4)oxadiazol-2-ylmethyl)-pyrrolidin-1-yl)-methanone) and [3H]-EMPA. The Ki for each compound is then uploaded into 3DX. Each run comprises individual compounds in triplicate. The data in Table 1 and Table 2 represent averages from between 2-20 runs
(§2) Rat and Human Orexin 1 Receptor Radioligand Binding Studies
(§3) After centrifugation (2K×G, 5 min at 4° C.), the supernatant was aspirated and the pellets frozen and stored at −80° C. […] Each cell pellet from a 15 cm plate was resuspended in 10 mL, stored on ice, and homogenized for 45 sec prior to addition to the reactions. […] The final concentration of DMSO in the reactions is equal to or less than 0.1%. Total and nonspecific binding was determined in the absence and presence of 10 μM almorexant. The total volume of each reaction is 200 μL (20 μL of diluted compounds, 80 μL of [^3H]-(1-(5-(2-fluoro-phenyl)-2-methyl-thiazol-4-yl)-1-((S)-2-(5-phenyl-(1,3,4)oxadiazol-2-ylmethyl)-pyrrolidin-1-yl)-methanone) diluted in PBS and 100 μL of the cell suspension). […] The plates were washed 3 times by aspirating 30 ml PBS through the plates. Plates were dried in 55° C. oven for 60 min, scintillation fluid was added, and the radioactivity was counted on a Topcount (Packard).

human orexin 2 receptor = human orexin 2 receptor (Homo sapiens (Human), UniProt O43614); experiment: Human orexin 2 receptor radioligand binding; conditions: read-out: hOX2 Ki
Chain of human orexin 2 receptor (O43614 whole entry): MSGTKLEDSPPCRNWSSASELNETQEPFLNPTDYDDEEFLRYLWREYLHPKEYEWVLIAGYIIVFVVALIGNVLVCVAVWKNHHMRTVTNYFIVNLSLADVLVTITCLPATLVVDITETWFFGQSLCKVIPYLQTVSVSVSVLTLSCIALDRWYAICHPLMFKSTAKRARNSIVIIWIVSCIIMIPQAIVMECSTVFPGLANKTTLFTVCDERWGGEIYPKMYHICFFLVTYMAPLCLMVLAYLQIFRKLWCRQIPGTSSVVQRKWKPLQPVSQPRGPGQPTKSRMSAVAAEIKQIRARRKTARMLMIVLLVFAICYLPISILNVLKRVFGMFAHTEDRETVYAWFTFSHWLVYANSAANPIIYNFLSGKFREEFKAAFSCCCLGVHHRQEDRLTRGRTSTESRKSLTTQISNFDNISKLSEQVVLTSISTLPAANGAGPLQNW
Method: as §1
Human Orexin 2 Receptor Radioligand Binding Studies
as §3, with “HEK293 stably expressing human orexin 2 receptor (Genebank accession number NM_001526) were grown to confluency in DMEM (Hyclone, cat # SH30022), 10% FBS, 1× Pen/Strep, 1× NaPyruvate, 10 mM HEPES, 600 ug/ml G418 media on 150 cm^2 tissue culture plates, washed with 5 mM EDTA in PBS (HyClone Dulbecco's Phosphate Buffered Saline 1× with Calcium and Magnesium, Cat # SH30264.01, hereafter referred to simply as PBS) and scraped into 50 ml tubes. After” for “After”, “sec just” for “sec”, “[^3H]-EMPA” for “[^3H]-(1-(5-(2-fluoro-phenyl)-2-methyl-thiazol-4-yl)-1-((S)-2-(5-phenyl-(1,3,4)oxadiazol-2-ylmethyl)-pyrrolidin-1-yl)-methanone)”

rat orexin 1 receptor = rat orexin 1 receptor (Rattus norvegicus, UniProt P56718); experiment: Rat orexin 1 receptor radioligand binding; conditions: read-out: rOX1 Ki
Method: as §1, §2, §3

[1] = human orexin 1 receptor, averages of 2-20 runs
[2] = human orexin 2 receptor, averages of 2-20 runs
[3] = rat orexin 1 receptor, averages of 2-20 runs

pKi (human orexin 1 receptor; [1])	pKi (human orexin 2 receptor; [2])	pKi (rat orexin 1 receptor; [3])	Structure (SMILES)	pKi (human orexin 1 receptor)	pKi (human orexin 2 receptor)	pKi (rat orexin 1 receptor)
7.74	6.11	7.60	Cc1nc(C(=O)N2CC3CC(Oc4ccc(C(F)(F)F)cn4)C2C3)c(-c2ccc(F)cc2)s1 (racemic) [Example 5, (R/S)-(5-(4-fluorophenyl)-2-methylthiazol-4-yl)(6-((5-(trifluoromethyl)pyridin-2-yl)oxy)-2-azabicyclo[2.2.1]heptan-2-yl)methanone]			
8.00	6.46	7.70	Cc1cccc(C(=O)N2CC3CCC2C(Nc2cnc(C(F)(F)F)cn2)C3)c1-n1nccn1 (racemic) [Example 256, (R/S)-(3-methyl-2-(2H-1,2,3-triazol-2-yl)phenyl)(6-((5-(trifluoromethyl)pyrazin-2-yl)amino)-2-azabicyclo[2.2.2]octan-2-yl)methanone]			
7.62	6.13	7.68	O=C(c1cccc(F)c1-c1ncccn1)N1CC2CCC1C(Nc1cnc(C(F)(F)F)cn1)C2 (racemic) [Example 257, (R/S)-(3-fluoro-2-(pyrimidin-2-yl)phenyl)(6-((5-(trifluoromethyl)pyrazin-2-yl)amino)-2-azabicyclo[2.2.2]octan-2-yl)methanone]			
7.77	5.59	7.59	O=C(c1ccc(F)cc1-c1ncccn1)N1CC2CCC1C(Nc1cnc(C(F)(F)F)cn1)C2 (racemic) [Example 258, (R/S)-(4-fluoro-2-(pyrimidin-2-yl)phenyl)(6-((5-(trifluoromethyl)pyrazin-2-yl)amino)-2-azabicyclo[2.2.2]octan-2-yl)methanone]			
8.30	6.04	8.40	O=C(c1cccc(F)c1-c1ncccn1)N1C[C@H]2C[C@@H](Oc3ccc(Br)cn3)[C@@H]1C2 [Example 48, ((1S,4R,6R)-6-((5-bromopyridin-2-yl)oxy)-2-azabicyclo[2.2.1]heptan-2-yl)(3-fluoro-2-(pyrimidin-2-yl)phenyl)methanone]			
8.30	6.35		O=C(c1ccccc1-n1nccn1)N1C[C@H]2C[C@@H](Oc3ccc(Br)cn3)[C@@H]1C2 [Example 49, (2-(2H-1,2,3-triazol-2-yl)phenyl)((1S,4R,6R)-6-((5-bromopyridin-2-yl)oxy)-2-azabicyclo[2.2.1]heptan-2-yl)methanone]			
8.00	6.24		Cc1ccc(-n2nccn2)c(C(=O)N2C[C@H]3C[C@@H](Oc4ccc(Br)cn4)[C@@H]2C3)n1 [Example 50, ((1S,4R,6R)-6-((5-bromopyridin-2-yl)oxy)-2-azabicyclo[2.2.1]heptan-2-yl)(6-methyl-3-(2H-1,2,3-triazol-2-yl)pyridin-2-yl)methanone]			
8.52	6.71	8.30	O=C(c1cc(F)ccc1-c1ncccn1)N1C[C@H]2C[C@@H](Nc3ccc(C(F)(F)F)cn3)[C@@H]1C2 [Example 58, (5-fluoro-2-(pyrimidin-2-yl)phenyl)((1S,4S,6R)-6-((5-(trifluoromethyl)pyridin-2-yl)amino)-2-azabicyclo[2.2.1]heptan-2-yl)methanone]			
8.15	6.72		O=C(c1ccccc1-n1nccn1)N1C[C@H]2C[C@@H](Nc3cnc(C(F)(F)F)cn3)[C@@H]1C2 [Example 59, (2-(2H-1,2,3-triazol-2-yl)phenyl)((1S,4S,6R)-6-((5-(trifluoromethyl)pyrazin-2-yl)amino)-2-azabicyclo[2.2.1]heptan-2-yl)methanone]			
7.92	6.21	7.70	O=C(c1ccccc1-n1nccn1)N1C[C@H]2C[C@@H](Nc3ncc(C(F)(F)F)cn3)[C@@H]1C2 [Example 60, (2-(2H-1,2,3-triazol-2-yl)phenyl)((1S,4S,6R)-6-((5-(trifluoromethyl)pyrimidin-2-yl)amino)-2-azabicyclo[2.2.1]heptan-2-yl)methanone]			
7.72	6.61	7.82	Cc1ccc(-n2nccn2)c(C(=O)N2C[C@H]3C[C@@H](Nc4cnc(C(F)(F)F)cn4)[C@@H]2C3)n1 [Example 61, (6-methyl-3-(2H-1,2,3-triazol-2-yl)pyridin-2-yl)((1S,4S,6R)-6-((5-(trifluoromethyl)pyrazin-2-yl)amino)-2-azabicyclo[2.2.1]heptan-2-yl)methanone]			
7.72	6.24	7.55	Cc1ccc(-n2nccn2)c(C(=O)N2C[C@H]3C[C@@H](Nc4ncc(C(F)(F)F)cn4)[C@@H]2C3)n1 [Example 62, (6-methyl-3-(2H-1,2,3-triazol-2-yl)pyridin-2-yl)((1S,4S,6R)-6-((5-(trifluoromethyl)pyrimidin-2-yl)amino)-2-azabicyclo[2.2.1]heptan-2-yl)methanone]			
8.30	6.74	8.70	O=C(c1cccc(F)c1-c1ncccn1)N1C[C@H]2C[C@@H](Nc3ccc(C(F)(F)F)cn3)[C@@H]1C2 [Example 66, (3-fluoro-2-(pyrimidin-2-yl)phenyl)((1S,4S,6R)-6-((5-(trifluoromethyl)pyridin-2-yl)amino)-2-azabicyclo[2.2.1]heptan-2-yl)methanone]			
8.15	6.58	8.15	O=C(c1cccc(F)c1-c1ncccn1)N1C[C@H]2C[C@@H](Nc3cnc(C(F)(F)F)cn3)[C@@H]1C2 [Example 67, (3-fluoro-2-(pyrimidin-2-yl)phenyl)((1S,4S,6R)-6-((5-(trifluoromethyl)pyrazin-2-yl)amino)-2-azabicyclo[2.2.1]heptan-2-yl)methanone]			
8.10	6.21	8.15	O=C(c1cccc(F)c1-c1ncccn1)N1C[C@H]2C[C@@H](Nc3ncc(C(F)(F)F)cn3)[C@@H]1C2 [Example 68, (3-fluoro-2-(pyrimidin-2-yl)phenyl)((1S,4S,6R)-6-((5-(trifluoromethyl)pyrimidin-2-yl)amino)-2-azabicyclo[2.2.1]heptan-2-yl)methanone]			
7.80	5.74	7.80	O=C(c1cccc(F)c1-c1ncccn1)N1C[C@@H]2CC[C@H]1[C@H](Oc1cnc(C(F)(F)F)cn1)C2 [Example 74, (3-fluoro-2-(pyrimidin-2-yl)phenyl)((1S,4R,6R)-6-((5-(trifluoromethyl)pyrazin-2-yl)oxy)-2-azabicyclo[2.2.2]octan-2-yl)methanone]			
			Cc1ccc(-n2nccn2)c(C(=O)N2C[C@@H]3CC[C@H]2[C@H](Oc2ccc(C(F)(F)F)cn2)C3)n1 [Example 76, (6-methyl-3-(2H-1,2,3-triazol-2-yl)pyridin-2-yl)((1S,4R,6R)-6-((5-(trifluoromethyl)pyridin-2-yl)oxy)-2-azabicyclo[2.2.2]octan-2-yl)methanone]	8.52	6.68	8.40
7.89	5.77	8.05	Cc1ccc(-n2nccn2)c(C(=O)N2C[C@@H]3CC[C@H]2[C@H](Oc2cnc(C(F)(F)F)cn2)C3)n1 [Example 77, (6-methyl-3-(2H-1,2,3-triazol-2-yl)pyridin-2-yl)((1S,4R,6R)-6-((5-(trifluoromethyl)pyrazin-2-yl)oxy)-2-azabicyclo[2.2.2]octan-2-yl)methanone]			
6.68	< 5.00	6.81	O=C(c1cccnc1-n1nccn1)N1C[C@H]2C[C@@H](Oc3ccc(C(F)(F)F)cn3)[C@@H]1C2 [Example 87, (2-(2H-1,2,3-triazol-2-yl)pyridin-3-yl)((1S,4R,6R)-6-((5-(trifluoromethyl)pyridin-2-yl)oxy)-2-azabicyclo[2.2.1]heptan-2-yl)methanone]			
